From ChEMBL document CHEMBL4699467, “Progress towards a stable cephalosporin-halogenated phenazine conjugate for antibacterial prodrug applications” (Bioorg Med Chem Lett, 2020) come the findings set out here.

≈ marks a conversion by molar mass, not a printed value.

A word on the MIC: it is the lowest concentration found to suppress growth.

One data set relates to Staphylococcus aureus. Description: Antibacterial activity against methicillin-resistant Staphylococcus aureus BAA-1707 assessed as inhibition of bacterial growth incubated for 16 to 18 hrs by CLSI protocol based two fold serial dilution method. The class given is functional. The conditions noted are these: time hrs 16-18.
The nature of data set [1]: Stability of the compound in methicillin-resistant Staphylococcus aureus BAA-1707 for 16 to 18 hrs. The data set is classed as ADME. The conditions noted are these: time 16-18 hrs.

For the molecule `Oc1c(Br)cc(Br)c2nc3ccccc3nc12`, in the data set on Staphylococcus aureus, the MIC was determined as 1 µM (≈ 0.354 µg/mL).
In the case of `O=C(Cc1cccs1)N[C@@H]1C(=O)N2C(C(=O)OC(c3ccccc3)c3ccccc3)=C(COC(=O)Oc3c(Br)cc(Br)c4nc5ccccc5nc34)CS[C@H]12`, the MIC in the data set with Staphylococcus aureus was more than 100 µM. Moreover, the Stabilty entry in data set [1] was “Stable”.
